Source: PubChem BioAssay (NCI)
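Where inhibition never reached the appropriate level, the endpoint shown equals the highest concentration tested. Otherwise, values were interpolated linearly from a five-concentration, 48-hour dose response in 96-well plates. Here, GI50 denotes the concentration required for 50% inhibition of growth. The concentration for full growth arrest is given as TGI.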

Experiments:
Test in all cases: NCI tumour cell line growth inhibition, 48 h
786-0 renal = tested on: 786-0 renal
CCRF-CEM leukemia = tested on: CCRF-CEM leukemia
HCC-2998 colon = tested on: HCC-2998 colon
HCT-116 colon = tested on: HCT-116 colon
IGROV1 ovarian = tested on: IGROV1 ovarian
NCI-H460 lung = tested on: NCI-H460 lung
OVCAR-3 ovarian = tested on: OVCAR-3 ovarian
HOP-62 NSCLC = tested on: HOP-62 NSCLC
DU-145 prostate = tested on: DU-145 prostate
MCF7 breast = tested on: MCF7 breast

Compound: O=c1oc2c(O)c(O)cc3c(=O)oc4c(O)c(O)cc1c4c23
- TGI (786-0 renal): 71.6 µM
- GI50 (CCRF-CEM leukemia): > 100 µM
- TGI (CCRF-CEM leukemia): > 100 µM
- GI50 (HCC-2998 colon): > 100 µM
- TGI (HCC-2998 colon): > 100 µM
- TGI (HCT-116 colon): > 100 µM
- TGI (IGROV1 ovarian): > 100 µM
- TGI (NCI-H460 lung): > 100 µM
- TGI (OVCAR-3 ovarian): 82.2 µM

Compound: Cc1cc(=O)n2c(cc3cccccc32)n1
- TGI (786-0 renal): > 100 µM
- TGI (CCRF-CEM leukemia): > 100 µM
- TGI (HCC-2998 colon): > 100 µM
- TGI (HOP-62 NSCLC): > 100 µM
- TGI (IGROV1 ovarian): > 100 µM
- TGI (NCI-H460 lung): > 100 µM
- TGI (OVCAR-3 ovarian): > 100 µM

Compound: CC1(C)C=C(N2CCN(C3=CC(C)(C)NC(C)(C)C3)CC2)CC(C)(C)N1
- TGI (786-0 renal): > 100 µM
- TGI (CCRF-CEM leukemia): > 100 µM
- TGI (HCC-2998 colon): > 100 µM
- TGI (HCT-116 colon): > 100 µM
- TGI (HOP-62 NSCLC): > 100 µM
- TGI (IGROV1 ovarian): > 100 µM
- TGI (NCI-H460 lung): > 100 µM
- TGI (OVCAR-3 ovarian): > 100 µM

Compound: CC(C)c1ccc(C(O)(C(=O)O)c2ccc(C(C)C)cc2)cc1
- TGI (786-0 renal): > 100 µM
- TGI (CCRF-CEM leukemia): > 100 µM
- TGI (DU-145 prostate): > 100 µM
- TGI (HCT-116 colon): > 100 µM
- TGI (HOP-62 NSCLC): > 100 µM
- TGI (IGROV1 ovarian): > 100 µM
- TGI (MCF7 breast): > 100 µM
- TGI (NCI-H460 lung): > 100 µM
- TGI (OVCAR-3 ovarian): 60.7 µM

Compound: Cc1ccc2c(c1)C(=O)/C(=C/c1cccc(OCC(=O)c3ccc(Cl)cc3)c1)CS2
- GI50 (786-0 renal): 11.3 µM
- TGI (786-0 renal): 24.6 µM
- GI50 (CCRF-CEM leukemia): 2.38 µM
- TGI (CCRF-CEM leukemia): 6.83 µM
- GI50 (DU-145 prostate): 21.9 µM
- TGI (DU-145 prostate): > 100 µM
- GI50 (HCT-116 colon): 1.89 µM
- TGI (HCT-116 colon): 3.85 µM
- GI50 (HOP-62 NSCLC): 13 µM
- TGI (HOP-62 NSCLC): 30.6 µM
- GI50 (IGROV1 ovarian): 5.65 µM
- TGI (IGROV1 ovarian): 20.4 µM
- GI50 (MCF7 breast): 3 µM
- TGI (MCF7 breast): 11.3 µM
- GI50 (NCI-H460 lung): 18.8 µM
- TGI (NCI-H460 lung): > 100 µM
- GI50 (OVCAR-3 ovarian): 5.58 µM
- TGI (OVCAR-3 ovarian): 18 µM

Compound: O=C(Nc1cccc(-n2ccc3c(NC(=O)c4ccccc4)nccc32)c1)c1ccc(Cl)c(Cl)c1
- GI50 (786-0 renal): 0.242 µM
- TGI (786-0 renal): 1.59 µM
- GI50 (DU-145 prostate): 0.22 µM
- TGI (DU-145 prostate): 0.855 µM
- GI50 (HCC-2998 colon): 0.286 µM
- TGI (HCC-2998 colon): 1.27 µM
- GI50 (HCT-116 colon): 0.0989 µM
- TGI (HCT-116 colon): 1.22 µM
- GI50 (HOP-62 NSCLC): 0.24 µM
- TGI (HOP-62 NSCLC): 1.87 µM
- GI50 (IGROV1 ovarian): 0.25 µM
- TGI (IGROV1 ovarian): 1.9 µM
- GI50 (MCF7 breast): 0.04 µM
- TGI (MCF7 breast): 1.43 µM
- GI50 (NCI-H460 lung): 0.158 µM
- TGI (NCI-H460 lung): 1.08 µM
- GI50 (OVCAR-3 ovarian): 0.0413 µM
- TGI (OVCAR-3 ovarian): 0.162 µM

Compound: c1ccc(N2CCN(CCCN3CCc4c([nH]c5ccccc45)C3c3cccnc3)CC2)cc1 (stereo unspecified)
- TGI (786-0 renal): > 100 µM
- TGI (CCRF-CEM leukemia): > 100 µM
- TGI (HCC-2998 colon): > 100 µM
- TGI (HCT-116 colon): > 100 µM
- TGI (HOP-62 NSCLC): > 100 µM
- TGI (IGROV1 ovarian): > 100 µM
- TGI (NCI-H460 lung): > 100 µM
- TGI (OVCAR-3 ovarian): > 100 µM

Compound: CC(=O)OC(C)(C)C[N+](=O)[O-]
- TGI (786-0 renal): > 100 µM
- TGI (CCRF-CEM leukemia): > 100 µM
- TGI (HCC-2998 colon): > 100 µM
- TGI (HCT-116 colon): > 100 µM
- TGI (HOP-62 NSCLC): > 100 µM
- TGI (IGROV1 ovarian): > 100 µM
- TGI (NCI-H460 lung): > 100 µM
- TGI (OVCAR-3 ovarian): > 100 µM

Compound: CC1OC(OC2C(O)C(OCCc3ccc(O)c(O)c3)OC(CO)C2OC(=O)/C=C/c2ccc(O)c(O)c2)C(O)C(O)C1O (stereo unspecified)
- GI50 (786-0 renal): 14.5 µM
- TGI (786-0 renal): 36.3 µM
- GI50 (DU-145 prostate): 13.5 µM
- TGI (DU-145 prostate): 27.4 µM
- GI50 (HCC-2998 colon): 19 µM
- TGI (HCC-2998 colon): 35.6 µM
- GI50 (HCT-116 colon): > 100 µM
- TGI (HCT-116 colon): > 100 µM
- GI50 (HOP-62 NSCLC): > 100 µM
- TGI (HOP-62 NSCLC): > 100 µM
- GI50 (IGROV1 ovarian): 47.6 µM
- TGI (IGROV1 ovarian): > 100 µM
- GI50 (MCF7 breast): 32.9 µM
- TGI (MCF7 breast): > 100 µM
- GI50 (NCI-H460 lung): > 100 µM
- TGI (NCI-H460 lung): > 100 µM
- GI50 (OVCAR-3 ovarian): 27.4 µM
- TGI (OVCAR-3 ovarian): 79.7 µM

Compound: CN(CCc1ccccn1)/[N+]([O-])=N/O (tested in a mixture with another compound)
- TGI (786-0 renal): > 100 µM
- TGI (CCRF-CEM leukemia): > 100 µM
- TGI (HCC-2998 colon): > 100 µM
- TGI (HCT-116 colon): > 100 µM
- TGI (HOP-62 NSCLC): > 100 µM
- TGI (IGROV1 ovarian): > 100 µM
- TGI (NCI-H460 lung): > 100 µM
- TGI (OVCAR-3 ovarian): > 100 µM
